Reference: patent publication US20110186457A1, “NOVEL SINGLE UNIT CARBAPENEM AMINOGLYCOSIDE FORMULATIONS” (priority 2008, published 2011)
Converted amounts (≈) assume the structure as drawn. “And” between values parts separate entries of the source, which are not always exact repeats. Equal entries are not always repeated. Where two headings read alike, the source gives them in different places. Blank lines part the entries; values can stand above or below the compound they belong to.

Experiments:
[1] = tested on: renal tissue of Mus musculus mice; test: Oxidative stress and kidney toxicity markers in renal tissue after repeated antibiotic administration to mice; assay type: in vivo
A. baumannii (1425 MTCC) = test: Zone of inhibition; assay type: cell-based; design: unit not given beside the values
Description: (§1) Where X and Y are respective additive agents mixed in the formulation with water for injection.

[2] = tested on: P. aeruginosa (1688 MTCC); test: Zone of inhibition; assay type: cell-based; design: unit not given beside the values
Description: as §1

[3] = tested on: K. pneumoniae (10031 ATCC); test: Zone of inhibition; assay type: cell-based; design: unit not given beside the values
Description: as §1

C. braakii (2690 MTCC) = test: Zone of inhibition; assay type: cell-based; design: unit not given here
Description: as §1

S. aureus (737 MTCC) = test: Zone of inhibition; assay type: cell-based; design: unit not given here
Description: as §1

E. coli (1687 MTCC) = test: Zone of inhibition; assay type: cell-based; design: unit not given here
Description: as §1

P. vulgaris (426 MTCC) = test: Zone of inhibition; assay type: cell-based; design: unit not given here
Description: as §1

MRSA = test: In-vitro microbial efficacy (MIC); assay type: cell-based
C. braakii MTCC 2690 = test: In-vitro microbial efficacy (MIC); assay type: cell-based
B. subtilis MTCC 736 = test: In-vitro microbial efficacy (MIC); assay type: cell-based
P. aeruginosa MTCC 1688 = test: In-vitro microbial efficacy (MIC); assay type: cell-based
P. vulgaris MTCC 426 = test: In-vitro microbial efficacy (MIC); assay type: cell-based
S. aureus MTCC 737 = test: In-vitro microbial efficacy (MIC); assay type: cell-based
A. baumanii MTCC 1425 = test: In-vitro microbial efficacy (MIC); assay type: cell-based
N. mucosa MTCC 1722 = test: In-vitro microbial efficacy (MIC); assay type: cell-based
M. smegmatis MTCC 995 = test: In-vitro microbial efficacy (MIC); assay type: cell-based
[4] = tested on: K. pneumoniae 10031(ATCC); test: In-vitro microbial efficacy (MIC); assay type: cell-based
E. coli MTCC 1687 = test: In-vitro microbial efficacy (MIC); assay type: cell-based
E. cloacae MTCC 509 = test: In-vitro microbial efficacy (MIC); assay type: cell-based

SMILES: NCC[C@H](O)C(=O)N[C@@H]1C[C@H](N)[C@@H](O[C@H]2O[C@H](CN)[C@@H](O)[C@H](O)[C@H]2O)[C@H](O)[C@H]1O[C@H]1O[C@H](CO)[C@@H](O)[C@H](N)[C@H]1O [Amikacin]
- Catalase activity in renal tissue ([1]; mouse, in vivo): decrease
- Glutathione reductase activity in renal tissue ([1]; mouse, in vivo): decrease
- MDA activity in renal tissue ([1]; mouse, in vivo): increase
- SOD activity in renal tissue ([1]; mouse, in vivo): decrease

SMILES: C[C@@H](O)[C@H]1C(=O)N2C(C(=O)O)=C(S[C@@H]3CN[C@H](C(=O)Nc4cccc(C(=O)O)c4)C3)[C@H](C)[C@H]12 [Ertapenem]
- Zone of Inhibition (A. baumannii (1425 MTCC); drug concentration 0.005 mcg): Nil
- Zone of Inhibition (A. baumannii (1425 MTCC); drug concentration 0.05 mcg): 13.37
- Zone of Inhibition (A. baumannii (1425 MTCC); drug concentration 0.5 mcg): 18.25
- Zone of Inhibition ([2]; drug concentration 0.005 mcg): Nil
- Zone of Inhibition ([2]; drug concentration 0.05 mcg): Nil
- Zone of Inhibition ([2]; drug concentration 0.5 mcg): Nil
- Zone of Inhibition ([3]; drug concentration 0.005 mcg): Nil
- Zone of Inhibition ([3]; drug concentration 0.05 mcg): Nil
- Zone of Inhibition ([3]; drug concentration 0.5 mcg): 15.90
- Zone of Inhibition (C. braakii (2690 MTCC); drug concentration 0.005 mcg): 10.52
- Zone of Inhibition (C. braakii (2690 MTCC); drug concentration 0.05 mcg): 18.95
- Zone of Inhibition (C. braakii (2690 MTCC); drug concentration 0.5 mcg): 27.88
- Zone of Inhibition (S. aureus (737 MTCC); drug concentration 0.005 mcg): 9.44
- Zone of Inhibition (S. aureus (737 MTCC); drug concentration 0.05 mcg): 14.55
- Zone of Inhibition (S. aureus (737 MTCC); drug concentration 0.5 mcg): 21.33
- Zone of Inhibition (E. coli (1687 MTCC); drug concentration 0.005 mcg): 10.10
- Zone of Inhibition (E. coli (1687 MTCC); drug concentration 0.05 mcg): 15.49
- Zone of Inhibition (E. coli (1687 MTCC); drug concentration 0.5 mcg): 21.45
- Zone of Inhibition (E. coli (1687 MTCC); drug concentration 1.0 mcg): 23.39
- Zone of Inhibition (P. vulgaris (426 MTCC); drug concentration 0.005 mcg): 9.54
- Zone of Inhibition (P. vulgaris (426 MTCC); drug concentration 0.05 mcg): 16.74
- Zone of Inhibition (P. vulgaris (426 MTCC); drug concentration 0.5 mcg): 18.50

- MIC (MRSA): 4 µg/mL (≈ 8.38 µM)
- MIC (C. braakii MTCC 2690): 2 µg/mL (≈ 4.19 µM)
- MIC (B. subtilis MTCC 736): 8 µg/mL (≈ 16.8 µM)
- MIC (P. aeruginosa MTCC 1688): 8 µg/mL (≈ 16.8 µM)
- MIC (P. vulgaris MTCC 426): 4 µg/mL (≈ 8.38 µM)
- MIC (S. aureus MTCC 737): 8 µg/mL (≈ 16.8 µM)
- MIC (A. baumanii MTCC 1425): 2 µg/mL (≈ 4.19 µM)
- MIC (N. mucosa MTCC 1722): 1 µg/mL (≈ 2.09 µM)
- MIC (M. smegmatis MTCC 995): 2 µg/mL (≈ 4.19 µM)
- MIC [4]: 8 µg/mL (≈ 16.8 µM)
- MIC (E. coli MTCC 1687): 0.125 µg/mL (≈ 0.262 µM)
- MIC (E. cloacae MTCC 509): 2 µg/mL (≈ 4.19 µM)
SMILES: CCN[C@@H]1C[C@H](N)[C@@H](O[C@H]2O[C@H](CN)CC[C@H]2N)[C@H](O)[C@H]1O[C@H]1OC[C@](C)(O)[C@H](NC)[C@H]1O [Etimicin]
- Zone of Inhibition (A. baumannii (1425 MTCC); drug concentration 0.005 mcg): Nil
- Zone of Inhibition (A. baumannii (1425 MTCC); drug concentration 0.5 mcg): 13.5 and 12.88
- Zone of Inhibition ([2]; drug concentration 0.005 mcg): Nil
- Zone of Inhibition ([2]; drug concentration 0.05 mcg): Nil
- Zone of Inhibition ([2]; drug concentration 0.5 mcg): 12.49 and 12.60
- Zone of Inhibition ([3]; drug concentration 0.005 mcg): nil and Nil
- Zone of Inhibition ([3]; drug concentration 0.05 mcg): nil and Nil
- Zone of Inhibition ([3]; drug concentration 0.5 mcg): 16.64 and 16.50
- Creatnine level in renal tissue ([1]; Mus musculus mice, repeated administration for 7 days consecutively (FIG. 5)): significantly decreased
- SOD activity in renal tissue ([1]; mice, after administration of antibiotic (FIG. 1)): decrease
- Catalase activity in renal tissue ([1]; mice, after administration of antibiotic (FIG. 2)): decrease
- MDA activity in renal tissue ([1]; mice, after administration of antibiotic (FIG. 3)): increase
- Glutathione reductase activity in renal tissue ([1]; mice, after administration of antibiotic (FIG. 4)): decrease
- Zone of Inhibition (C. braakii (2690 MTCC); drug concentration 0.005 mcg): Nil
- Zone of Inhibition (C. braakii (2690 MTCC); drug concentration 0.05 mcg): Nil
- Zone of Inhibition (C. braakii (2690 MTCC); drug concentration 0.5 mcg): 18.70 and 19.10
- Zone of Inhibition (S. aureus (737 MTCC); drug concentration 0.005 mcg): Nil
- Zone of Inhibition (S. aureus (737 MTCC); drug concentration 0.05 mcg): 11.15 and 10.12
- Zone of Inhibition (S. aureus (737 MTCC); drug concentration 0.5 mcg): 17.50 and 16.65
- Zone of Inhibition (E. coli (1687 MTCC); drug concentration 0.005 mcg): Nil
- Zone of Inhibition (E. coli (1687 MTCC); drug concentration 0.05 mcg): 9.42 and 9.31
- Zone of Inhibition (E. coli (1687 MTCC); drug concentration 0.5 mcg): 16.50 and 15.70
- Zone of Inhibition (E. coli (1687 MTCC); drug concentration 1.0 mcg): 17.57
- Zone of Inhibition (P. vulgaris (426 MTCC); drug concentration 0.005 mcg): Nil
- Zone of Inhibition (P. vulgaris (426 MTCC); drug concentration 0.05 mcg): Nil
- Zone of Inhibition (P. vulgaris (426 MTCC); drug concentration 0.5 mcg): 15.19 and 13.97

SMILES: C[C@@H](O)[C@H]1C(=O)N2C(C(=O)O)=C(S[C@@H]3CN[C@H](C(=O)N(C)C)C3)[C@H](C)[C@H]12 [Meropenem]
- MIC (MRSA; Staphylococcus aureus, read-out: MIC): 0.5 µg/mL (≈ 1.3 µM)
- MIC (C. braakii MTCC 2690; Citrobacter braakii, MTCC2690, read-out: MIC): 0.25 µg/mL (≈ 0.652 µM)
- MIC (B. subtilis MTCC 736; Bacillus subtilis, MTCC736, read-out: MIC): 2 µg/mL (≈ 5.22 µM)
- MIC (P. aeruginosa MTCC 1688; Pseudomonas aeruginosa, MTCC1688, read-out: MIC): 2 µg/mL (≈ 5.22 µM)
- MIC (P. vulgaris MTCC 426; Proteus vulgaris, MTCC426, read-out: MIC): 0.0625 µg/mL (≈ 0.163 µM)
- Zone of Inhibition (A. baumannii (1425 MTCC); drug concentration 0.005 mcg): Nil
- Zone of Inhibition (A. baumannii (1425 MTCC); drug concentration 0.05 mcg): 14.50
- Zone of Inhibition (A. baumannii (1425 MTCC); drug concentration 0.5 mcg): 19.81
- Zone of Inhibition ([2]; drug concentration 0.005 mcg): Nil
- Zone of Inhibition ([2]; drug concentration 0.05 mcg): 13.64
- Zone of Inhibition ([2]; drug concentration 0.5 mcg): 21.85
- Zone of Inhibition ([3]; drug concentration 0.005 mcg): Nil
- Zone of Inhibition ([3]; drug concentration 0.05 mcg): 14.36
- Zone of Inhibition ([3]; drug concentration 0.5 mcg): 23.87
- Catalase activity in renal tissue ([1]; mouse, in vivo): decrease
- Glutathione reductase activity in renal tissue ([1]; mouse, in vivo): decrease
- MDA activity in renal tissue ([1]; mouse, in vivo): increase
- SOD activity in renal tissue ([1]; mouse, in vivo): decrease
- MIC (S. aureus MTCC 737; Staphylococcus aureus, MTCC737, read-out: MIC): 0.5 µg/mL (≈ 1.3 µM)
- Zone of Inhibition (C. braakii (2690 MTCC); drug concentration 0.005 mcg): 9.35
- Zone of Inhibition (C. braakii (2690 MTCC); drug concentration 0.05 mcg): 23.35
- Zone of Inhibition (C. braakii (2690 MTCC); drug concentration 0.5 mcg): 28.60
- Zone of Inhibition (S. aureus (737 MTCC); drug concentration 0.005 mcg): 11.45
- Zone of Inhibition (S. aureus (737 MTCC); drug concentration 0.05 mcg): 16.29
- Zone of Inhibition (S. aureus (737 MTCC); drug concentration 0.5 mcg): 22.76
- Zone of Inhibition (E. coli (1687 MTCC); drug concentration 0.005 mcg): 8.88
- Zone of Inhibition (E. coli (1687 MTCC); drug concentration 0.05 mcg): 15.70
- Zone of Inhibition (E. coli (1687 MTCC); drug concentration 0.5 mcg): 22.97
- Zone of Inhibition (P. vulgaris (426 MTCC); drug concentration 0.005 mcg): 10.84
- Zone of Inhibition (P. vulgaris (426 MTCC); drug concentration 0.05 mcg): 18.01
- Zone of Inhibition (P. vulgaris (426 MTCC); drug concentration 0.5 mcg): 21.32
- MIC (A. baumanii MTCC 1425; Acinetobacter baumannii, MTCC1425, read-out: MIC): 0.125 µg/mL (≈ 0.326 µM)
- MIC (N. mucosa MTCC 1722; read-out: MIC): 0.125 µg/mL (≈ 0.326 µM)
- MIC (M. smegmatis MTCC 995; Mycolicibacterium smegmatis, MTCC995, read-out: MIC): 0.25 µg/mL (≈ 0.652 µM)
- MIC ([4]; Klebsiella pneumoniae, read-out: MIC): 1 µg/mL (≈ 2.61 µM)
- MIC (E. coli MTCC 1687; Escherichia coli, MTCC1687, read-out: MIC): 0.0625 µg/mL (≈ 0.163 µM)
- MIC (E. cloacae MTCC 509; Enterobacter cloacae, MTCC509, read-out: MIC): 0.125 µg/mL (≈ 0.326 µM)

SMILES: NC[C@H]1O[C@H](O[C@H]2[C@H](O)[C@@H](O[C@H]3O[C@H](CO)[C@@H](O)[C@H](N)[C@H]3O)[C@H](N)C[C@@H]2N)[C@H](N)C[C@@H]1O [Tobramycin]
- Catalase activity in renal tissue ([1]; mouse, in vivo): decrease
- Glutathione reductase activity in renal tissue ([1]; mouse, in vivo): decrease
- MDA activity in renal tissue ([1]; mouse, in vivo): increase
- SOD activity in renal tissue ([1]; mouse, in vivo): decrease
